In US12084419B2, “Cell metabolism modulating compounds and uses thereof” (CRESCENTA BIOSCIENCES, priority 2020, dated 2024):

Target: T1, His6 tagged human recombinant FABP4 (Homo sapiens, UniProt P15090)
T1 construct: purchased Cayman Chemicals 10009549
Assay: FABP4 TR-FRET assay: displacement of BODIPY FL C12 fatty acid
Conditions: triplicates, inhibition of BODIPY FL C12 binding; for inhibition at 1 µM: 1 μM compound; for inhibition at 10 µM: 10 μM compound
Method in brief: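 TR-FRET with a Tb anti-His6 antibody donor and BODIPY FL C12 as acceptor; compounds came from 0.362 and 0.0362 mM DMSO stocks. Protein (83 nM) and antibody (49.6 nM) solutions were premixed 30 min on ice in 25 mM Tris pH 7.4 with γ-globulins, NP-40 and DTT. Incubation was 10 min at room temperature; inhibition came from the 520/615 nm ratio.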

T1 sequence (P15090 whole entry): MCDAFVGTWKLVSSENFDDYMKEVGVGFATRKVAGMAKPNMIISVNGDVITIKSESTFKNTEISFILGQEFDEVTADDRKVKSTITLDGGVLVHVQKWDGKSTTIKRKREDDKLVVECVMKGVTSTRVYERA

Structure (SMILES) | inhibition at 1 µM | inhibition at 10 µM
CCCCCCC1CCc2c(n(Cc3ccccc3C#N)c3c(C(=O)O)cccc23)C1 (centres unmarked) [9-[(2-cyanophenyl)methyl]-2-hexyl-2,3,4,9-tetrahydro-1H-carbazole-8-carboxylic acid] | 87.3% | 92.7%
CCCCCCC1CCc2c(n(Cc3ccccc3F)c3c(C(=O)O)cccc23)C1 (centres unmarked) [9-[(2-fluorophenyl)methyl]-2-hexyl-2,3,4,9-tetrahydro-1H-carbazole-8-carboxylic acid] | 81.8% | 84.9%
CCCCCOC1CCCc2c1n(Cc1cccc(C(N)=O)c1)c1c(C(=O)O)cccc21 (centres unmarked) [9-[(3-carbamoylphenyl)methyl]-1-(pentyloxy)-2,3,4,9-tetrahydro-1H-carbazole-8-carboxylic acid] | 81.9% | 100%
CCC1CCCc2c1n(Cc1cccc(C(N)=O)c1)c1c(C(=O)O)cccc21 (centres unmarked) [9-[(3-carbamoylphenyl)methyl]-1-ethyl-2,3,4,9-tetrahydro-1H-carbazole-8-carboxylic acid] | 90.3% | 95.9%
CCCOC1CCCc2c1n(Cc1cccc(C(N)=O)c1)c1c(C(=O)O)cccc21 (centres unmarked) [9-[(3-carbamoylphenyl)methyl]-1-propoxy-2,3,4,9-tetrahydro-1H-carbazole-8-carboxylic acid] | 57.6% | 92%
NC(=O)c1cccc(Cn2c3c(c4cccc(C(=O)O)c42)CCC(CCc2ccccc2)C3)c1 (centres unmarked) [9-[(3-carbamoylphenyl)methyl]-2-(2-phenylethyl)-2,3,4,9-tetrahydro-1H-carbazole-8-carboxylic acid] | 98.4% | 94.1%
CCC1CCc2c(n(Cc3cccc(C(N)=O)c3)c3c(C(=O)O)cccc23)C1 (centres unmarked) [9-[(3-carbamoylphenyl)methyl]-2-ethyl-2,3,4,9-tetrahydro-1H-carbazole-8-carboxylic acid] | 85.5% | 101%
CCCCCCC1CCc2c(n(Cc3cccc(C(N)=O)c3)c3c(C(=O)O)cccc23)C1 (centres unmarked) [9-[(3-carbamoylphenyl)methyl]-2-hexyl-2,3,4,9-tetrahydro-1H-carbazole-8-carboxylic acid] | 92.8% | 90.5%
CCCCCC1CCc2c(n(Cc3cccc(C(N)=O)c3)c3c(C(=O)O)cccc23)C1 (centres unmarked) [9-[(3-carbamoylphenyl)methyl]-2-pentyl-2,3,4,9-tetrahydro-1H-carbazole-8-carboxylic acid] | 75% | 67%
CCCC1CCc2c(n(Cc3cccc(C(N)=O)c3)c3c(C(=O)O)cccc23)C1 (centres unmarked) [9-[(3-carbamoylphenyl)methyl]-2-propyl-2,3,4,9-tetrahydro-1H-carbazole-8-carboxylic acid] | 83.6% | 88%
CCC1CCc2c(c3cccc(C(=O)O)c3n2Cc2cccc(C(N)=O)c2)C1 (centres unmarked) [9-[(3-carbamoylphenyl)methyl]-3-ethyl-2,3,4,9-tetrahydro-1H-carbazole-8-carboxylic acid] | 98.2% | 103%
CCCCCC1CCc2c(c3cccc(C(=O)O)c3n2Cc2cccc(C(N)=O)c2)C1 (centres unmarked) [9-[(3-carbamoylphenyl)methyl]-3-pentyl-2,3,4,9-tetrahydro-1H-carbazole-8-carboxylic acid] | 90.9% | 98.4%
CCCC1CCc2c(c3cccc(C(=O)O)c3n2Cc2cccc(C(N)=O)c2)C1 (centres unmarked) [9-[(3-carbamoylphenyl)methyl]-3-propyl-2,3,4,9-tetrahydro-1H-carbazole-8-carboxylic acid] | 87.3% | 99.2%
NC(=O)c1cccc(Cn2c3c(c4cccc(C(=O)O)c42)C(CCc2ccccc2)CCC3)c1 (centres unmarked) [9-[(3-carbamoylphenyl)methyl]-4-(2-phenylethyl)-2,3,4,9-tetrahydro-1H-carbazole-8-carboxylic acid] | 44.1% | 77.9%
CCC1CCCc2c1c1cccc(C(=O)O)c1n2Cc1cccc(C(N)=O)c1 (centres unmarked) [9-[(3-carbamoylphenyl)methyl]-4-ethyl-2,3,4,9-tetrahydro-1H-carbazole-8-carboxylic acid] | 87% | 102%
CCCCCC1CCCc2c1c1cccc(C(=O)O)c1n2Cc1cccc(C(N)=O)c1 (centres unmarked) [9-[(3-carbamoylphenyl)methyl]-4-pentyl-2,3,4,9-tetrahydro-1H-carbazole-8-carboxylic acid] | 42.6% | 84.4%
CCCC1CCCc2c1c1cccc(C(=O)O)c1n2Cc1cccc(C(N)=O)c1 (centres unmarked) [9-[(3-carbamoylphenyl)methyl]-4-propyl-2,3,4,9-tetrahydro-1H-carbazole-8-carboxylic acid] | 53.9% | 90%
CCC1CCCc2c1n(Cc1cccc(C(=O)O)c1)c1c(C(=O)O)cccc21 (centres unmarked) [9-[(3-carboxyphenyl)methyl]-1-ethyl-2,3,4,9-tetrahydro-1H-carbazole-8-carboxylic acid] | 39.6% | 78.5%

Structure (SMILES) | inhibition at 1 µM | inhibition at 10 µM
CCC1CCc2c(n(Cc3cccc(C(=O)O)c3)c3c(C(=O)O)cccc23)C1 (centres unmarked) [9-[(3-carboxyphenyl)methyl]-2-ethyl-2,3,4,9-tetrahydro-1H-carbazole-8-carboxylic acid] | 23.5% | 69.2%
CCCCCCC1CCc2c(n(Cc3cccc(C(=O)O)c3)c3c(C(=O)O)cccc23)C1 (centres unmarked) [9-[(3-carboxyphenyl)methyl]-2-hexyl-2,3,4,9-tetrahydro-1H-carbazole-8-carboxylic acid] | 23.9% | 73%
CCC1CCCc2c1c1cccc(C(=O)O)c1n2Cc1cccc(C(=O)O)c1 (centres unmarked) [9-[(3-carboxyphenyl)methyl]-4-ethyl-2,3,4,9-tetrahydro-1H-carbazole-8-carboxylic acid] | 52.1% | 85.4%
CCCCCOC1CCCc2c1n(Cc1cccc(C#N)c1)c1c(C(=O)O)cccc21 (centres unmarked) [9-[(3-cyanophenyl)methyl]-1-(pentyloxy)-2,3,4,9-tetrahydro-1H-carbazole-8-carboxylic acid] | 7.56% | 63.3%
CCC1CCCc2c1n(Cc1cccc(C#N)c1)c1c(C(=O)O)cccc21 (centres unmarked) [9-[(3-cyanophenyl)methyl]-1-ethyl-2,3,4,9-tetrahydro-1H-carbazole-8-carboxylic acid] | 44.2% | 87.6%
N#Cc1cccc(Cn2c3c(c4cccc(C(=O)O)c42)CCC(CCc2ccccc2)C3)c1 (centres unmarked) [9-[(3-cyanophenyl)methyl]-2-(2-phenylethyl)-2,3,4,9-tetrahydro-1H-carbazole-8-carboxylic acid] |  | 92.3%
CCCCCCC1CCc2c(n(Cc3cccc(C#N)c3)c3c(C(=O)O)cccc23)C1 (centres unmarked) [9-[(3-cyanophenyl)methyl]-2-hexyl-2,3,4,9-tetrahydro-1H-carbazole-8-carboxylic acid] | 63.6% | 83.4%
CCCCCC1CCc2c(n(Cc3cccc(C#N)c3)c3c(C(=O)O)cccc23)C1 (centres unmarked) [9-[(3-cyanophenyl)methyl]-2-pentyl-2,3,4,9-tetrahydro-1H-carbazole-8-carboxylic acid] | 60.8% | 77.1%
CCCC1CCc2c(n(Cc3cccc(C#N)c3)c3c(C(=O)O)cccc23)C1 (centres unmarked) [9-[(3-cyanophenyl)methyl]-2-propyl-2,3,4,9-tetrahydro-1H-carbazole-8-carboxylic acid] | 55.6% | 81.4%
CCC1CCc2c(c3cccc(C(=O)O)c3n2Cc2cccc(C#N)c2)C1 (centres unmarked) [9-[(3-cyanophenyl)methyl]-3-ethyl-2,3,4,9-tetrahydro-1H-carbazole-8-carboxylic acid] | 45.8% | 90.3%
CCCCCC1CCc2c(c3cccc(C(=O)O)c3n2Cc2cccc(C#N)c2)C1 (centres unmarked) [9-[(3-cyanophenyl)methyl]-3-pentyl-2,3,4,9-tetrahydro-1H-carbazole-8-carboxylic acid] | 57.4% | 83.3%
CCCC1CCc2c(c3cccc(C(=O)O)c3n2Cc2cccc(C#N)c2)C1 (centres unmarked) [9-[(3-cyanophenyl)methyl]-3-propyl-2,3,4,9-tetrahydro-1H-carbazole-8-carboxylic acid] | 46.8% | 85.4%
N#Cc1cccc(Cn2c3c(c4cccc(C(=O)O)c42)C(CCc2ccccc2)CCC3)c1 (centres unmarked) [9-[(3-cyanophenyl)methyl]-4-(2-phenylethyl)-2,3,4,9-tetrahydro-1H-carbazole-8-carboxylic acid] | 31% | 53.4%
CCCCCC1CCCc2c1c1cccc(C(=O)O)c1n2Cc1cccc(C#N)c1 (centres unmarked) [9-[(3-cyanophenyl)methyl]-4-pentyl-2,3,4,9-tetrahydro-1H-carbazole-8-carboxylic acid] | 26.3% | 73.7%
CCCCCCC1CCc2c(n(Cc3ccc(C(N)=O)cc3)c3c(C(=O)O)cccc23)C1 (centres unmarked) [9-[(4-carbamoylphenyl)methyl]-2-hexyl-2,3,4,9-tetrahydro-1H-carbazole-8-carboxylic acid] | 87.3% | 89.3%
CCCCCCC1CCc2c(n(Cc3ccc(C#N)cc3)c3c(C(=O)O)cccc23)C1 (centres unmarked) [9-[(4-cyanophenyl)methyl]-2-hexyl-2,3,4,9-tetrahydro-1H-carbazole-8-carboxylic acid] | 39.7% | 78.9%
CCCCC1CCCCc2c1c1cccc(C(=O)O)c1n2Cc1cccc(C(N)=O)c1 (centres unmarked) [10-butyl-5-[(3-carbamoylphenyl)methyl]-5H,6H,7H,8H,9H,10H-cyclohepta[b]indole-4-carboxylic acid] | 63.3% | 87.9%
CCCCC1CCCCc2c1c1cccc(C(=O)O)c1n2Cc1cccc(C#N)c1 (centres unmarked) [10-butyl-5-[(3-cyanophenyl)methyl]-5H,6H,7H,8H,9H,10H-cyclohepta[b]indole-4-carboxylic acid] | 30.9% | 73.6%
